Laboratory results taken from US4863933A, “3-hydroxypyridines” (Smith Kline & French Laboratories Limited, priority 1986, dated 1989).

Key:
[1] = biological target: T1, histamine H1-receptor (guinea pig ileum) (Cavia porcellus, UniProt P31389); test: in vitro guinea pig ileum test (histamine H1-antagonist activity); format: cell-based; settings: isolated guinea pig ileum, magnesium free Tyrode solution, 30° C., 8 min contact, histamine as agonist; read-out: pA2 ileum (converted)
T1 construct: an isolated portion of the guinea pig ileum is secured under tension; from tissue; host or cells: isolated guinea pig ileum
Experimental: In this test an isolated portion of the guinea pig ileum is secured under tension (500 mg) between an anchorage and a transducer in a 10 ml tissue bath and immersed in magnesium free Tyrode solution with constant aeration at a temperature of 30° C. The output from the transducer is amplified. The amplified output is in turn fed to a flat bed recorder. Measured amounts of histamine are added to the tissue bath so that the histamine concentration increases step-wise until the force of the contraction reaches a maximum. The tissue bath is washed out and filled with fresh magnesium free Tyrode solution containing compound under test. The solution is left in contact with the tissue for 8 min. and measured amounts of histamine are added again until a maximum contraction is recorded. The assay is repeated with increasing concentrations of test compound and the dose of histamine giving 50% of maximum contraction is noted. A dose ratio (DR) was calculated by comparing the concentrations of histamine required to produce 50% maximum response in the absence and in the presence of the antagonist. A plot of Log DR-1 against Log D (the concentration of compound under test) is made and the point of intersection with the Log (DR-1) ordinate is taken as the measure of the activity (pA2 value).

histamine H1-receptor = test: in vivo inhibition of histamine induced bronchoconstriction in anaesthetised guinea pigs; settings: intravenous antagonist dose giving DR-1 = 10, histamine dose-response 5 minutes after antagonist
Experimental: Guinea pigs of either sex are anaesthetised by intraperitoneal injection of sodium pentobarbitone, 90 mg/kg. The trachea is cannulated. The animal is respired artificially with a fixed volume of air just adequate to inflate the lungs. The pressure needed to inflate the lungs is monitored from the respiratory system using a pressure transducer. Intravenous injection of histamine causes dose-dependent increases in the pressure to inflate the lungs reflecting the bronchoconstrictor action of histamine. Responses to histamine can be antagonised using histamine H1 -receptor antagonists.
Dose-response curves to histamine are established at 20, 40, 80, 160 and 320 nmols/kg. Antagonists are then administered by intravenous injection and 5 minutes later a new histamine dose-response curve is established increasing the doses of histamine as necessary. The effect of the antagonist can be quantified by the displacement, to the right, of the histamine dose-response curve, expressed as a dose-ratio. A series of doses of antagonists may be given to each animal allowing calculation of dose-ratios for each dose of antagonist.

T1 sequence (P31389 whole entry): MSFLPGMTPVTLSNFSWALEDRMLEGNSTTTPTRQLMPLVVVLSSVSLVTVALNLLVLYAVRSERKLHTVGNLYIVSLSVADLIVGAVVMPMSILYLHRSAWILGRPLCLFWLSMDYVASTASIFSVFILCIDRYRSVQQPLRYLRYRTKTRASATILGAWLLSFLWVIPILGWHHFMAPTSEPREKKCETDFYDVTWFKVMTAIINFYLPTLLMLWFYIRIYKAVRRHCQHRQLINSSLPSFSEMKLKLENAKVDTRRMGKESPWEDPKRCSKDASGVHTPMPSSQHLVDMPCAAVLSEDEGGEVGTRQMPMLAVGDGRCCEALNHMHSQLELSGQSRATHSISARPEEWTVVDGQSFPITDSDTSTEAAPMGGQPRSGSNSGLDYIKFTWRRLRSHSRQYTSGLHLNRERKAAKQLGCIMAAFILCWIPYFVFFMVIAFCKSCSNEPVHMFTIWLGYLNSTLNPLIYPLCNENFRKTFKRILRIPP

Row | SMILES | Kb [1] [nM] | Guinea Pig bronchoconstriction DR-1 = 10 (histamine H1-receptor) [μm/kg]
1 | Oc1cc(Cc2cccnc2)cnc1NCCCC1CCCc2cccnc21 (stereo not shown) [2(e), 2-[3-(5,6,7,8-Tetrahydroquinol-8-yl)propylamino]-3-hydroxy-5-(pyrid-3-ylmethyl)pyridine] | 9.55 | 0.038
2 | Cc1cc(Br)cnc1CCCCNc1ncc(Cc2cccnc2)cc1O [1(h), 2-[4-(5-Bromo-3-methylpyrid-2-yl)butylamino]-3-hydroxy-5-(pyrid-3-ylmethyl)pyridine] | 1.95 | 0.016
3 | Cc1cc(Br)cnc1CCCCNc1ncc(Cc2cccnc2)cc1OP(=O)(O)O [1(i), 2-[4-(5-Bromo-3-methylpyrid-2-yl)butylamino]-5-(pyrid-3-ylmethyl)pyrid-3-yloxyphosphate] | 8.13 | 0.033
4 | Cc1cc(Br)cnc1CCCNc1ncc(Cc2cccnc2)cc1O [3(h), 2-[3-(5-Bromo-3-methylpyrid-2-yl)-propylamino]-3-hydroxy-5-(pyrid-3-ylmethyl)pyridine] | 1.51 | –
